Results taken from PMC6508677, “Identification of druggable small molecule antagonists of the Plasmodium falciparum hexose transporter PfHT and assessment of ligand access to the glucose permeation pathway via FLAG-mediated protein engineering” (PLoS ONE, 2019).
Values joined by “and” are separate entries in the source; they are usually repeats but may differ in a detail not shown here. Equal values may be shown once. Read-outs that look alike come from different tables or passages of the source.

Assays:
hGLUT3 = molecular target: T1, hGLUT3 (Homo sapiens, UniProt P11169); test: 2-DG uptake by HEK293 cells overexpressing hGLUT3; type: cell-based; conditions: for remaining activity at 0.001 µM: 0.001 µM compound; for remaining activity at 5 µM / inhibition at 5 µM: 5 μM compound; for remaining activity at 40 µM: 40 µM compound; for remaining activity at 80 µM: 80 µM compound; for remaining activity at 160 µM: 160 µM compound; for remaining activity at 225 µM: 225 µM compound; for IC50: IC50 for inhibition of 2-DG uptake
T1 construct: expressed in transfected cells; host or cells: HEK293 (HEK293-FLIP, native hGLUT1 knocked down by shRNA)
T1 sequence (P11169 1-496): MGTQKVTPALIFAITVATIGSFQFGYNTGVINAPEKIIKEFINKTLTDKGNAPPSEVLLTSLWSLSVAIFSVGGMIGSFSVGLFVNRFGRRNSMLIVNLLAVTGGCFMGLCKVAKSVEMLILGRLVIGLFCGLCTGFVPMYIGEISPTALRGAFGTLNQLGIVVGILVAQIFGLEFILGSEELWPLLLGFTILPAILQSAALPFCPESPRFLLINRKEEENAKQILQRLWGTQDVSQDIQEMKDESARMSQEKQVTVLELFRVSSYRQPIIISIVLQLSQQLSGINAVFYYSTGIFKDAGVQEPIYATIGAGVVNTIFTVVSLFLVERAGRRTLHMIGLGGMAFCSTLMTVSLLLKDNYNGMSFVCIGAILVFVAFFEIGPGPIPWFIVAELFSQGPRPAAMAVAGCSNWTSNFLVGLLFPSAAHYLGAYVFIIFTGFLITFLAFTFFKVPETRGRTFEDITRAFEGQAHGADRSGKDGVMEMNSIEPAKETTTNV
From the text: (§1) Generation of HEK293 cells overexpressing PfHT and human GLUTs 1–4 were described elsewhere. Briefly, HEK293 cells were transfected with pcDNA3.1 FLII12Pglu-7006 (Addgene), containing the fluorescence resonance energy transfer (FRET) glucose sensor (HEK293-FLIP) and PfHT, human GLUT1 (hGLUT1), hGLUT2, hGLUT3, hGLUT4, hGLUT5 or hGLUT8 using Optifect (Life Technologies) according to manufacturer’s specifications. To increase retention of GLUT8 at the plasma membrane, the dileucine sorting signal E^7E^8XXXLL was modified to R^7R^8XXXLL as described in [17]. Stable transfectants were selected for G418 and hygromycin resistance to select for FRET sensor and hexose transporter, respectively. HEK293-FLIP cells were also used to generate cells stably transfected with FLAG-tagged PfHT (FTPfHT). FLAG tag ([…]) followed by a triple glycine linker and a tobacco etch virus (TEV) protease site (ENLYFQS) followed by a triple glycine linker was added to the N-terminus of PfHT via PCR [18] using Phusion Hot Start II High-Fidelity DNA Polymerase (Fisher Scientific). Single clones were selected by comparing their abilities to transport glucose as assayed via FRET and radiolabeled hexose uptake. In all cell lines, except for HEK293 cells overexpressing hGLUT1 and hGLUT5, native hGLUT1 was knocked down using shRNA as described elsewhere. Transcript levels of the individual GLUTs expressed in each cell line are as described in [13, 15] and in S1 Fig.
(§2) Glucose uptake by P. falciparum was performed essentially as described. P. falciparum strain 3D7 was cultured in 100 mm tissue culture dishes (Techno Plastic Products) in a 2% suspension of human erythrocytes and RPMI 1640 medium until reaching > 7.5% parasitemia. Cells were pelleted via centrifugation and resuspended in RPMI 1640 medium. To determine the uptake of radiolabeled glucose into the parasite, parasites were isolated from infected erythrocytes by permeablization with saponin (0.05 w/v), followed by centrifugation, aspiration of supernatant and washing of the pellet 3X with saline solution (135 mM NaCl, 2 mM KCl, 25 mM HEPES, 0.2 mM glucose and 1 mM MgCl2; pH 7.1) to remove cellular debris. WU-1 or DMSO vehicle were added to 100 μl parasites (resuspended in saline) 5 min prior to the addition of 100 μl [^14C]2-DOG (0.2- μCi/ml final concentration). 2-DG uptake was stopped after 2 min by layering the entire reaction over 300 μl of an oil mixture (5:4 mix of dibutyl phthalate / dinonyl phthalate) in Eppendorf tubes and centrifuged at 15,850 × g for 2 mins. The ratio of the estimated intracellular concentration of radiolabel relative to the extracellular concentration were calculated as described. Uptake of radiolabeled hexose into HEK293 cells was measured in glucose-free HBSS as described previously. Briefly, cells were plated at 400,000 cells/well overnight at 37°C in 24-well plates pre-treated with PEI. After 30-min incubation at 37°C in glucose-free HBSS in the presence of vehicle or increasing concentrations of compound, 2-DG uptake was measured in glucose-free HBSS for 4 min at 37°C. Cultures were washed in ice-cold 1X PBS and lysed in 0.1% Triton X-100 in 1X PBS. Radiolabeled hexose uptake was determined by liquid scintillation counting (Ultima Gold, Thermo Fisher) and normalized to total protein per well. Uptake data are plotted as percent uptake relative to vehicle-treated cells. Kinetic analyses were performed using the indicated concentrations of substrate and WU-1, with quenching of uptake after 1 min incubation. Incubation times had been previously determined as being in the linear range of time-dependent radiolabeled hexose uptake (2 min for 2-DG uptake into freed parasites; 2 and 4 min for D-Frc and 2-DG uptake HEK cell lines, respectively). Data were fit by least squares nonlinear regression analysis using GraphPad Prism 6.0 software.

hGLUT4 = molecular target: T2, hGLUT4 (Homo sapiens, UniProt P14672); test: 2-DG uptake by HEK293 cells overexpressing hGLUT4; type: cell-based; conditions: for remaining activity at 0.001 µM: 0.001 µM compound; for remaining activity at 0.001 µM / remaining activity at 1.25 µM / remaining activity at 2.5 µM / remaining activity at 5 µM / remaining activity at 10 µM / remaining activity at 20 µM / remaining activity at 40 µM / remaining activity at 80 µM / remaining activity at 160 µM / remaining activity at 225 µM: read-out: 2-DG uptake (percent uptake relative to vehicle), AVE per experiment; for remaining activity at 1.25 µM: 1.25 µM compound; for remaining activity at 20 µM: 20 µM compound; for remaining activity at 40 µM: 40 µM compound; for remaining activity at 80 µM: 80 µM compound; for remaining activity at 160 µM: 160 µM compound; for remaining activity at 225 µM: 225 µM compound; for IC50: IC50 for inhibition of 2-DG uptake
T2 construct: expressed in transfected cells; host or cells: HEK293 (HEK293-FLIP, native hGLUT1 knocked down by shRNA)
T2 sequence (P14672 1-509): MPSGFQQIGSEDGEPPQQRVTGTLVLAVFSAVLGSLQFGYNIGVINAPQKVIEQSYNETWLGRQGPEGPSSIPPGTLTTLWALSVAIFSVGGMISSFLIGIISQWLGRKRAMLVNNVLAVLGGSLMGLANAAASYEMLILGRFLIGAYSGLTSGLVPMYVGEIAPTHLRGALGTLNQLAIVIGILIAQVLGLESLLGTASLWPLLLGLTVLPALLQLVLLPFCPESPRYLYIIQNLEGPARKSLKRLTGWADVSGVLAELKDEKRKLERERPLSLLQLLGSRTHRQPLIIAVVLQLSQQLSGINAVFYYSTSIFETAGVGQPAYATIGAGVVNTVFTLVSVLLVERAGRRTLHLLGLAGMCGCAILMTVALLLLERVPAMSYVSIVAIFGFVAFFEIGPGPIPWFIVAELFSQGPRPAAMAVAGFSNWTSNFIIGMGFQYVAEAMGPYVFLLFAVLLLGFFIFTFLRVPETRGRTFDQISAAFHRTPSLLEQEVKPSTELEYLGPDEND
From the text: as §1, §2

[1] = HEK293, 4 min, GLUT3, read-out: 2-DG uptake (percent uptake relative to vehicle), AVE per experiment
[2] = HEK293, 4 min, GLUT3, 2.5 µM compound, read-out: 2-DG uptake (percent uptake relative to vehicle), AVE per experiment
[3] = HEK293, 4 min, GLUT3, read-out: % Inhibition of 2-DG uptake vs vehicle
[4] = HEK293, 4 min, GLUT3, 10 µM compound, read-out: 2-DG uptake (percent uptake relative to vehicle), AVE per experiment
[5] = GLUT3 cell line, mean/reported value
[6] = individual experiments, GLUT3, Expt 1-3
[7] = HEK293, 4 min, GLUT4, 2.5 µM compound
[8] = HEK293, 4 min, GLUT4, 5 µM compound
[9] = HEK293, 4 min, GLUT4, 10 µM compound
[10] = GLUT4 cell line, mean/reported value

Row | Compound | remaining activity at 0.001 µM (hGLUT3; [1]) [%] | remaining activity at 2.5 µM (hGLUT3; [2]) [%] | remaining activity at 5 µM (hGLUT3; [1]) [%] | inhibition at 5 µM (hGLUT3; [3]) [%] | remaining activity at 10 µM (hGLUT3; [4]) [%] | remaining activity at 40 µM (hGLUT3; [1]) [%] | remaining activity at 80 µM (hGLUT3; [1]) [%] | remaining activity at 160 µM (hGLUT3; [1]) [%] | remaining activity at 225 µM (hGLUT3; [1]) [%] | IC50 (hGLUT3; [5]) [µM] | IC50 (hGLUT3; [6]) | remaining activity at 0.001 µM (hGLUT4; HEK293, 4 min, GLUT4) [%] | remaining activity at 1.25 µM (hGLUT4; HEK293, 4 min, GLUT4) [%] | remaining activity at 2.5 µM (hGLUT4; [7]) [%] | remaining activity at 5 µM (hGLUT4; [8]) [%] | remaining activity at 10 µM (hGLUT4; [9]) [%] | remaining activity at 20 µM (hGLUT4; HEK293, 4 min, GLUT4) [%] | remaining activity at 40 µM (hGLUT4; HEK293, 4 min, GLUT4) [%] | remaining activity at 80 µM (hGLUT4; HEK293, 4 min, GLUT4) [%] | remaining activity at 160 µM (hGLUT4; HEK293, 4 min, GLUT4) [%] | other results
1 | Cc1ccc(S(=O)(=O)CCNC(=O)c2c(-c3c(Cl)cccc3Cl)noc2C)cc1 [WU-1, 3-(2,6-dichlorophenyl)-5-methyl-N-[2-(4-methylbenzenesulfonyl)ethyl]-1,2-oxazole-4-carboxamide] | 100 | 103 | 99.5 | 0.48 | 103 | 82.5 | 76.4 | 80 | 75.3 | > 100 | > 225 µM | 100 | 99.2 | 96.1 | 89.1 | 94 | 88.4 | 86.8 | 74.7 | 64.7 | IC50 for inhibition of 2-DG uptake, individual experiments (hGLUT3; GLUT3, Expt 1-3): ambiguous; remaining activity at 1.25 µM (hGLUT3; HEK293, 4 min, GLUT3, 1.25 µM compound, read-out: 2-DG uptake (percent uptake relative to vehicle), AVE per experiment): 110%; remaining activity at 20 µM (hGLUT3; HEK293, 4 min, GLUT3, 20 µM compound, read-out: 2-DG uptake (percent uptake relative to vehicle), AVE per experiment): 102%; IC50 for inhibition of 2-DG uptake, individual experiments (hGLUT4; GLUT4, Expt 1-3): ambiguous; remaining activity at 225 µM (hGLUT4; HEK293, 4 min, GLUT4): 61.9%; remaining activity at 5 µM (hGLUT4; HEK293, 4 min): 102%; remaining activity at 10 µM (hGLUT4; HEK293, 4 min): 83.2%; inhibition at 5 µM (hGLUT4; HEK293, 4 min, read-out: % Inhibition of 2-DG uptake vs vehicle): -1.91%; IC50 (hGLUT4; [10]): > 100 µM
2 | COc1c(Br)cc([N+](=O)[O-])c(OC)c1C(=O)NC(=O)Nc1c(C)cccc1Cl [WU-2, 3-(3-bromo-2,6-dimethoxy-5-nitrobenzoyl)-1-(2-chloro-6-methylphenyl)urea] | 100 | 92.9 | 92.4 | 10 to 12 | 95.1 | 91.7 | 81.9 | 68.7 | 77.5 | > 50 | 103 µM and 61.6 µM and 11.4 µM | 100 | 95.3 | 91.7 | 86.8 | 88.3 | 74.1 | 66.7 | 61 | 55.7 | Maximum Inhibition (%) (hGLUT4; 2-DG uptake, GLUT4 cell line): 40.0%; inhibition at 5 µM (hGLUT4; HEK293, 4 min, GLUT4, 5 µM compound, read-out: % Inhibition of 2-DG uptake vs vehicle): 10 to 12%; remaining activity at 225 µM (hGLUT4; HEK293, 4 min, GLUT4): 63.7%; IC50 (hGLUT4; [10]): 18.5 ± 3.5 µM; IC50 (hGLUT4; individual experiments, GLUT4, Expt 1-3): 14.2 µM and 25.4 µM and 15.9 µM
3 | COc1cc(/C=N/NC(=O)c2cc(-c3ccccc3)sc2N)cc(OC)c1OC [WU-3, 2-amino-5-phenyl-N'-[(E)-(3,4,5-trimethoxyphenyl)methylidene]thiophene-3-carbohydrazide] |  |  |  |  |  |  |  |  |  |  |  |  |  |  |  |  |  |  |  |  | inhibition at 10 µM (hGLUT3; HEK293, 4 min, GLUT3, 10 µM compound, read-out: % Inhibition of 2-DG uptake vs vehicle): ≥ 50%
4 | COc1cc(/C=C2\COC/C(=C\c3cc(OC)c(OC)c(OC)c3)C2=O)cc(OC)c1OC [WU-5, (3E,5E)-3,5-bis[(3,4,5-trimethoxyphenyl)methylidene]oxan-4-one] |  |  |  |  |  |  |  |  |  |  |  |  |  |  |  |  |  |  |  |  | inhibition at 2.5 µM (hGLUT3; HEK293, 4 min, GLUT3, 2.5 µM compound, read-out: % Inhibition of 2-DG uptake vs vehicle): ~20%; inhibition at 2.5 µM (hGLUT4; HEK293, 4 min, GLUT4, 2.5 µM compound, read-out: % Inhibition of 2-DG uptake vs vehicle): ~45%
